Converted amounts (≈) assume the structure as drawn.
What was measured:
[1] = Octanol-water partition coefficient, log P of the compound; type: physicochemical
[2] = Anticoagulant activity in plasma assessed as elongation in mean prothrombin time after 5 min by Quick's method; type: functional, cell-free

Structure (SMILES)	logP [1]	IC50 [2] [µg/mL]
C/C(CC(=O)Nc1nnc(-c2ccc([N+](=O)[O-])cc2)s1)=N\c1ccc([N+](=O)[O-])cn1	3.54	1200 (≈ 2.81 mM)
C/C(CC(=O)Nc1nnc(/C=C/c2ccccc2)s1)=N\c1ccccn1	4.22	2400 (≈ 6.6 mM)
C/C(CC(=O)Nc1nnc(-c2ccc(O)cc2)s1)=N\c1ccccn1	3.43	3100 (≈ 8.77 mM)
C/C(CC(=O)Nc1nnc(-c2ccc(N)cc2)s1)=N\c1ccccn1	3.3	3500 (≈ 9.93 mM)
C/C(CC(=O)Nc1nnc(/C=C/c2ccccc2)s1)=N\c1ccc([N+](=O)[O-])cn1	4.13	3000 (≈ 7.34 mM)
C/C(CC(=O)Nc1nnc(-c2ccc([N+](=O)[O-])cc2)s1)=N\c1ccccn1	3.63	1200 (≈ 3.14 mM)

The remaining lines, values ahead:

logP [1]	IC50 [2] [µg/mL]	Structure (SMILES)
3.34	2800 (≈ 7.03 mM)	C/C(CC(=O)Nc1nnc(-c2ccc(O)cc2)s1)=N\c1ccc([N+](=O)[O-])cn1
3.65	2600 (≈ 6.57 mM)	CC(=O)Oc1ccccc1-c1nnc(NC(=O)C/C(C)=N/c2ccccn2)s1
3.21	2700 (≈ 6.79 mM)	C/C(CC(=O)Nc1nnc(-c2ccc(N)cc2)s1)=N\c1ccc([N+](=O)[O-])cn1
3.55	2100 (≈ 4.77 mM)	CC(=O)Oc1ccccc1-c1nnc(NC(=O)C/C(C)=N/c2ccc([N+](=O)[O-])cn2)s1

Source: ChEMBL document CHEMBL3045840, “Application of pocket modeling and k-nearest neighbor molecular field analysis (kNN-MFA) for designing of some anticoagulants: potential factor IXa inhibitors” (Med Chem Res, 2013)
